According to patent US9241488B2, “Azole derivative, method for producing azole derivative, and intermediate compound” (KUREHA CORPORATION, priority 2011, dated 2016):
Where two headings read alike, the source gives them in different places.

Key:
[1] = system: wheat leaf blight-causing microorganisms; test: Anti-bacterial effect on wheat leaf blight-causing microorganisms (PDA plate, mycelial growth inhibition); assay type: cell-based, Septoria tritici; details: 1.25 mg/L in PDA plate medium, 25° C., 14 days
Procedure: In Test Examples, an anti-bacterial effect of a compound in accordance with the present invention on the wheat leaf blight-causing microorganisms was tested, and was compared with the anti-bacterial effect of a comparative compound (1).
A dimethyl sulfoxide solution (0.6 ml) containing a compound in accordance with the present invention was added to a PDA medium (potato dextrose agar medium) (60 ml) having about 60° C., and the resultant mixture was mixed thoroughly in a 100-ml conical flask. The mixture was poured into a dish, and was solidified. […]
On the other hand, a subject microorganism previously cultured on a plate medium was cut out with use of a cork borer whose diameter was 4 mm, and the wheat leaf blight-causing microorganism on the plate medium thus cut out was inoculated to the chemical-containing plate medium described above. After such inoculation, the chemical-containing plate medium was incubated at 25° C. for 14 days, and then diameters of its flora were measured. A % mycelial growth inhibition was calculated with use of the formula. R=100(dc−dt)/dc (where R=% mycelial extension inhibition, dc=flora diameter in untreated plate, dt=flora diameter in treated plate)
The results obtained as described above were evaluated on a five-point scale according to the following criteria.
• 5: % Mycerial growth inhibition of 80% or higher • 4: % Mycerial growth inhibition of less than 80 to 60% or higher • 3: % Mycerial growth inhibition of less than 60 to 40% or higher • 2: % Mycerial growth inhibition of less than 40 to 20% or higher • 1: % Mycerial growth inhibition of less than 20%

[2] = system: wheat-brown-rust-causing microorganisms; test: Controlling effect on wheat brown rust (spray, pot test); assay type: in vivo, Puccinia recondita; details: 1 mg/L sprayed at 1,000 L/ha, wheat NORIN No. 61, 9 to 14 days after inoculation
Procedure: Onto a wheat plant (cultivar: NORIN No. 61) grown to the two-leaf stage with use of a square plastic pot (6 cm×6 cm), a wettable formulation such as Formulation Example 1 which was diluted and suspended in water at a concentration of 1 mg/L was sprayed at a rate of 1,000 L/ha. The sprayed leaves were air-dried, and inoculated with spore suspension of wheat-brown-rust-causing microorganisms (adjusted at 200 spores/vision, […] was added at 60 ppm) by spraying, and kept at 25° C. and a high humidity for 48 hours. Thereafter, the plant was kept in a greenhouse. Nine to fourteen days after inoculation, the wheat brown rust lesion degree was evaluated. The protective value was calculated by the following equation. Protective value (%)=(1-mean lesion degree in sprayed plot/mean lesion degree in unsprayed plot)×100 [table] [table]

[3] = system: Wheat Septoria nodorum blotch microorganism (Phaeosphaeria nodorum); test: Anti-bacterial effect on various microorganisms (plate medium), P.n; assay type: cell-based
[4] = system: Wheat eye spot (Pseudocercoporella herpotrichoides); test: Anti-bacterial effect on various microorganisms (plate medium), P.h; assay type: cell-based
[5] = system: Wheat fusarium blight (Fusarium graminearum); assay type: cell-based
[6] = system: Barley loose smut (Ustilago nuda); test: Anti-bacterial effect on various microorganisms (plate medium), U.n; assay type: cell-based
[7] = system: Rice blast (Pyricularia oryzae); assay type: cell-based
[8] = system: Rice bakanae disease (Giberella fujikuroi); test: Anti-bacterial effect on various microorganisms (plate medium), G.f; assay type: cell-based
[9] = system: Alternaria blotch (Alternaria alternata); test: Anti-bacterial effect on various microorganisms (plate medium), A.m; assay type: cell-based
[10] = system: Sclerotinia rot (Sclerotinia sclerotiorum); test: Anti-bacterial effect on various microorganisms (plate medium), S.s; assay type: cell-based
[11] = system: Gray mold (Botritis cinerea); test: Anti-bacterial effect on various microorganisms (plate medium), B.c; assay type: cell-based
[12] = system: Cucumber fusarium wilt (Fusarium oxysporum); test: Anti-bacterial effect on various microorganisms (plate medium), F.c; assay type: cell-based
[13] = system: Barley leaf blotch (Rhynchosporium secalis); test: Anti-bacterial effect on various microorganisms (plate medium), R. sec; assay type: cell-based
[14] = system: Wheat pink snow mold (Microdochium nivale); test: Anti-bacterial effect on various microorganisms (plate medium), M.n; assay type: cell-based
[15] = system: Rice bacterial seeding blight (Rhizopus oryzae); test: Anti-bacterial effect on various microorganisms (plate medium), R.o; assay type: cell-based

Structure (SMILES): COC[C@]1(CBr)CC[C@@H](Cc2ccccc2)[C@]1(O)Cn1cncn1 (racemic) [Compound I-203, (1RS,2RS,5SR)-5-benzyl-2-bromomethyl-2-methoxymethyl-1H-[1,2,4]triazole-1-ylmethylcyclopentanol]
- Growth inhibition grade [1]: 4 (% Mycerial growth inhibition of less than 80 to 60% or higher)
- Protective value [2]: 4 (61 to 80)
- Growth inhibition grade P.n ([3]; 1.25 mg/L): 4 (% Mycerial growth inhibition of less than 80 to 60% or higher)
- Growth inhibition grade P.n ([3]; 5 mg/L): 5 (% Mycerial growth inhibition of 80% or higher)
- Growth inhibition grade P.h ([4]; 1.25 mg/L): 4 (% Mycerial growth inhibition of less than 80 to 60% or higher)
- Growth inhibition grade P.h ([4]; 5 mg/L): 5 (% Mycerial growth inhibition of 80% or higher)
- Growth inhibition grade F.g ([5]; 1.25 mg/L): 5 (% Mycerial growth inhibition of 80% or higher)
- Growth inhibition grade F.g ([5]; 5 mg/L): 5 (% Mycerial growth inhibition of 80% or higher)
- Growth inhibition grade U.n ([6]; 1.25 mg/L): 5 (% Mycerial growth inhibition of 80% or higher)
- Growth inhibition grade U.n ([6]; 5 mg/L): 5 (% Mycerial growth inhibition of 80% or higher)
- Growth inhibition grade P.o ([7]; 1.25 mg/L): 5 (% Mycerial growth inhibition of 80% or higher)
- Growth inhibition grade P.o ([7]; 5 mg/L): 5 (% Mycerial growth inhibition of 80% or higher)
- Growth inhibition grade G.f ([8]; 1.25 mg/L): 5 (% Mycerial growth inhibition of 80% or higher)
- Growth inhibition grade G.f ([8]; 5 mg/L): 5 (% Mycerial growth inhibition of 80% or higher)
- Growth inhibition grade A.m ([9]; 1.25 mg/L): 4 (% Mycerial growth inhibition of less than 80 to 60% or higher)
- Growth inhibition grade A.m ([9]; 5 mg/L): 5 (% Mycerial growth inhibition of 80% or higher)
- Growth inhibition grade S.s ([10]; 1.25 mg/L): 5 (% Mycerial growth inhibition of 80% or higher)
- Growth inhibition grade S.s ([10]; 5 mg/L): 5 (% Mycerial growth inhibition of 80% or higher)
- Growth inhibition grade B.c ([11]; 1.25 mg/L): 5 (% Mycerial growth inhibition of 80% or higher)
- Growth inhibition grade B.c ([11]; 5 mg/L): 5 (% Mycerial growth inhibition of 80% or higher)
- Growth inhibition grade F.c ([12]; 1.25 mg/L): 5 (% Mycerial growth inhibition of 80% or higher)
- Growth inhibition grade F.c ([12]; 5 mg/L): 5 (% Mycerial growth inhibition of 80% or higher)
- Growth inhibition grade R. sec ([13]; 1.25 mg/L): 5 (% Mycerial growth inhibition of 80% or higher)
- Growth inhibition grade R. sec ([13]; 5 mg/L): 5 (% Mycerial growth inhibition of 80% or higher)
- Growth inhibition grade M.n ([14]; 1.25 mg/L): 5 (% Mycerial growth inhibition of 80% or higher)
- Growth inhibition grade M.n ([14]; 5 mg/L): 5 (% Mycerial growth inhibition of 80% or higher)
- Growth inhibition grade R.o ([15]; 1.25 mg/L): 4 (% Mycerial growth inhibition of less than 80 to 60% or higher)
- Growth inhibition grade R.o ([15]; 5 mg/L): 5 (% Mycerial growth inhibition of 80% or higher)

Structure (SMILES): COC[C@]1(CBr)CC[C@@H](Cc2ccc(F)cc2)[C@]1(O)Cn1cncn1 (racemic) [Compound I-198, (1RS,2RS,5SR)-5-(4-fluorobenzyl)-2-bromomethyl-2-methoxymethyl-1H-[1,2,4]triazole-1-ylmethylcyclopentanol]
- Growth inhibition grade [1]: 5 (% Mycerial growth inhibition of 80% or higher)
- Protective value [2]: 4 (61 to 80)
- Growth inhibition grade P.n ([3]; 1.25 mg/L): 4 (% Mycerial growth inhibition of less than 80 to 60% or higher)
- Growth inhibition grade P.n ([3]; 5 mg/L): 5 (% Mycerial growth inhibition of 80% or higher)
- Growth inhibition grade P.h ([4]; 1.25 mg/L): 4 (% Mycerial growth inhibition of less than 80 to 60% or higher)
- Growth inhibition grade P.h ([4]; 5 mg/L): 5 (% Mycerial growth inhibition of 80% or higher)
- Growth inhibition grade F.g ([5]; 1.25 mg/L): 4 (% Mycerial growth inhibition of less than 80 to 60% or higher)
- Growth inhibition grade F.g ([5]; 5 mg/L): 5 (% Mycerial growth inhibition of 80% or higher)
- Growth inhibition grade U.n ([6]; 1.25 mg/L): 4 (% Mycerial growth inhibition of less than 80 to 60% or higher)
- Growth inhibition grade U.n ([6]; 5 mg/L): 5 (% Mycerial growth inhibition of 80% or higher)
- Growth inhibition grade P.o ([7]; 1.25 mg/L): 5 (% Mycerial growth inhibition of 80% or higher)
- Growth inhibition grade P.o ([7]; 5 mg/L): 5 (% Mycerial growth inhibition of 80% or higher)
- Growth inhibition grade G.f ([8]; 1.25 mg/L): 5 (% Mycerial growth inhibition of 80% or higher)
- Growth inhibition grade G.f ([8]; 5 mg/L): 5 (% Mycerial growth inhibition of 80% or higher)
- Growth inhibition grade A.m ([9]; 1.25 mg/L): 4 (% Mycerial growth inhibition of less than 80 to 60% or higher)
- Growth inhibition grade A.m ([9]; 5 mg/L): 5 (% Mycerial growth inhibition of 80% or higher)
- Growth inhibition grade S.s ([10]; 1.25 mg/L): 5 (% Mycerial growth inhibition of 80% or higher)
- Growth inhibition grade S.s ([10]; 5 mg/L): 5 (% Mycerial growth inhibition of 80% or higher)
- Growth inhibition grade B.c ([11]; 1.25 mg/L): 5 (% Mycerial growth inhibition of 80% or higher)
- Growth inhibition grade B.c ([11]; 5 mg/L): 5 (% Mycerial growth inhibition of 80% or higher)
- Growth inhibition grade F.c ([12]; 1.25 mg/L): 5 (% Mycerial growth inhibition of 80% or higher)
- Growth inhibition grade F.c ([12]; 5 mg/L): 5 (% Mycerial growth inhibition of 80% or higher)
- Growth inhibition grade R. sec ([13]; 1.25 mg/L): 5 (% Mycerial growth inhibition of 80% or higher)
- Growth inhibition grade R. sec ([13]; 5 mg/L): 5 (% Mycerial growth inhibition of 80% or higher)
- Growth inhibition grade M.n ([14]; 1.25 mg/L): 4 (% Mycerial growth inhibition of less than 80 to 60% or higher)
- Growth inhibition grade M.n ([14]; 5 mg/L): 5 (% Mycerial growth inhibition of 80% or higher)
- Growth inhibition grade R.o ([15]; 1.25 mg/L): 5 (% Mycerial growth inhibition of 80% or higher)
- Growth inhibition grade R.o ([15]; 5 mg/L): 5 (% Mycerial growth inhibition of 80% or higher)

Structure (SMILES): COC[C@]1(CCl)CC[C@H](Cc2ccc(Cl)cc2)[C@]1(O)Cn1cncn1 (racemic) [Compound I-16b, (1RS,2RS,5RS)-5-(4-chlorobenzyl)-2-chloromethyl-2-methoxymethyl-1H-[1,2,4]triazole-1-ylmethylcyclopentanol]
- Growth inhibition grade M.n ([14]; 1.25 mg/L): 3 (% Mycerial growth inhibition of less than 60 to 40% or higher)
- Growth inhibition grade M.n ([14]; 5 mg/L): 5 (% Mycerial growth inhibition of 80% or higher)
- Growth inhibition grade R.o ([15]; 1.25 mg/L): 5 (% Mycerial growth inhibition of 80% or higher)
- Growth inhibition grade R.o ([15]; 5 mg/L): 5 (% Mycerial growth inhibition of 80% or higher)
